Test system: Gloeocapsa magma
Assay: Biological testing: visual rating of Gloeocapsa magma growth on inoculated plywood panels dipped in test solutions
Format: cell-based
Details: for effect on biocidal activity when combined with DDAC and/or BAC (QAC): QAC or QAC mixture and additive at concentrations as in the tables, data not shown for urea and urea dihydrochloride
Description: Test Solutions and Tests: To prepare the various QAC solutions, the following materials where used: Stepan BTC 1010 (50% aqueous solution of didecyl dimethyl ammonium chloride) and Stepan BTC 12 Special (50% aqueous solution of alkyl dimethyl benzyl ammonium chloride). Urea Monohydrochloride was prepared by reacting solid urea with hydrochloric acid 20BE (32% aqueous solution) at a ratio of one Mol active HCl to one Mol urea. Both Urea and HCl 20 BE are readily commercially available.
Biological testing: Gloeocapsa magma was chosen as a bacterial species that served as a model system for corona virus in terms of surface adhesion and membrane characteristics. The bacteria were cultured in a petri dish and inoculated on plywood panels (10×10 cm). […] The panels were dipped in the testing solutions for 10 seconds and left to dry. 24 hours post immersion each panel was examined for presence of green (living bacteria). This was done visually and rated from 0 (no growth)) to 5 (full growth coverage).

CCCCCCCCCC[N+](C)(C)CCCCCCCCCC.[Cl-] [DDAC, didecyl dimethyl ammonium chloride]
biocidal effect (0.9% of DDAC in combination with the urea or other nitrogenous base-hydrochloride in water): same biocidal effect as 3% DDAC alone in water

Cl.NC(N)=O [UMC, Urea Monohydrochloride]
effect on biocidal activity when combined with DDAC and/or BAC (QAC): synergistic effect

Cl.Cl.NC(N)=O [urea dihydrochloride]
effect on biocidal activity when combined with DDAC and/or BAC (QAC): no impact in biocidal activity

NC(N)=O [urea]
effect on biocidal activity when combined with DDAC and/or BAC (QAC): no impact in biocidal activity
